From paper PMC6225178 (Molecules : A Journal of Synthetic Chemistry and Natural …, 2018)

Experiments:
[1] = DPPH assay; conditions: for IC50: 30 min incubation at room temperature, absorbance 517 nm, n.a. ^c = no protection detected, n.a. ^d = IC50 > 5 mM
Procedure: The 2,2-diphenyl-1-picrylhydrazyl (DPPH) assay was performed using a previously reported method with a modification. A series of samples consisting of 900 μL of the 0.04 mg/mL methanolic solution of DPPH and different concentrations of the compounds (100 μL) were prepared. Then, the absorbance at 517 nm was measured after a 30 min incubation at room temperature. The half maximal inhibitory concentration (IC50) was used as an indicating measure of the scavenging activity.

[2] = Oxidation inhibition of the o/w emulsion (TBARS); conditions: for Inhibition of Oxidation of o/w Emulsion: determined at 100 µM, oxidation induced with Mohr's salt 5 mM, TBARS, n.a. ^c = no protection detected; for protection against the induced oxidation (in words): o/w emulsion model
Procedure: The emulsion containing 15 mg of sorbitan sesquioleate, 50 mg of flaxseed oil, and 2 mL of 10 mM Tris-HCl buffer, pH 7.4, was prepared by the method. Determination of the oxidation inhibition of the o/w emulsion was carried out according to a procedure described previously, using 20 μL of the 1:1 (v/v) buffer-diluted emulsion, methanolic solution of each compound (final concentration 100 μM), and ammonium iron(II) sulfate hexahydrate (Mohr′s salt) (5 mM). Thiobarbituric acid reacting substances (TBARS) were determined according to [44].

[3] = system: normal human dermal fibroblast (NHDF) cell line; experiment: Cell viability assay (MTT) in the NHDF cell line; format: cell-based; conditions: highest concentration
Procedure: The cytotoxicity test was performed as described in [44] using the NHDF cell line treated with the methanolic solution of the tested compounds to obtain the final concentrations of 12.5, 25, 50, 100, 200, or 250 µM, and incubation for 24 and 48 h. Cell viability was assessed by the MTT method.

Compound | IC50 [1] [µM] | DPPH scavenging ability (in words) [1] | Inhibition of Oxidation of o/w Emulsion [2] | effect on viability of NHDF cells after 48 h (in words) [3] | antioxidant activity compared with caffeic acid (in words) [2] | protection against the induced oxidation (in words) [2]
COC(=O)/C=C/c1ccccc1O [Compound 9, 3-(2.′-Hydroxyphenyl)-(E)-propenoic acid methyl ester] |  | no scavenging ability | 2.6 ± 1.5 |  |  | 
CC(=O)/C=C/c1ccccc1O [Compound 6, 4-(2′-hydroxyphenyl)-3(E)-buten-2-one] |  | no scavenging ability |  |  |  | 
CC(=O)/C=C/c1cccc(O)c1 [Compound 15, 4-(3′-hydroxyphenyl)-3(E)-buten-2-one] |  | no scavenging ability |  |  |  | 
COC(=O)/C=C/c1ccc(O)c(OC)c1 [Compound 14, 3-(4′-hydroxy-3-metoxyphenyl)-(E)-propenoic acid methyl ester] | 58.9 |  | 14.8 ± 2 |  |  | 
COC(=O)/C=C/c1cccc(O)c1 [Compound 10, 3-(3′-Hydroxyphenyl)-(E)-propenoic acid methyl ester] |  | no scavenging ability | 18.4 ± 2.2 |  |  | 
CC(=O)/C=C/c1ccc(O)cc1 [Compound 16, 4-(4′-hydroxyphenyl)-3(E)-buten-2-one] |  | no scavenging ability | 6.8 ± 4.4 |  |  | 
COC(=O)/C=C/c1ccc(O)cc1 [Compound 8, 3-(4′-Hydroxyphenyl)-(E)-propenoic acid methyl ester] |  | no scavenging ability | 22.7 ± 6.4 |  |  | 

More lines, main results first:

IC50 [1] [µM] | Compound | DPPH scavenging ability (in words) [1] | Inhibition of Oxidation of o/w Emulsion [2] | effect on viability of NHDF cells after 48 h (in words) [3] | antioxidant activity compared with caffeic acid (in words) [2] | protection against the induced oxidation (in words) [2]
1020 | COC(=O)/C=C/c1ccc(O)cc1O [Compound 11, 3-(2′,4′-dihydroxyphenyl)-(E)-propenoic acid methyl ester] |  | 33.7 ± 6.5 |  |  | 
61.8 | COc1cc(/C=C/C(C)=O)ccc1O [Compound 20, 4-(3′-methoxy-4′-hydroxyphenyl)-3(E)-buten-2-one] |  | 7.9 ± 2.1 | this effect after 48 h was not clearly noticeable |  | 
688 | CC(=O)/C=C/c1ccc(O)cc1O [Compound 17, 4-(2′,4′-dihydroxyphenyl)-3(E)-buten-2-one] |  | 4.6 ± 1.3 |  |  | 
18.6 | COC(=O)/C=C/c1ccc(O)c(O)c1O [Compound 12, 3-(2′,3′,4′-trihydroxyphenyl)-(E)-propenoic acid methyl ester] |  | 55.5 ± 2 |  | higher antioxidant activity than caffeic acid | highest protection against the induced oxidation
32.2 | O=C(O)/C=C/c1ccc(O)c(O)c1 [CA, caffeic acid, reference compound] |  | 26.1 ± 2.9 |  |  | 
16.8 | CC(=O)/C=C/c1ccc(O)c(O)c1O [Compound 18, 4-(2′,3′,4′-trihydroxyphenyl)-3(E)-buten-2-one] |  | 28.6 ±4 |  | higher antioxidant activity than caffeic acid | highest protection against the induced oxidation
53.3 | COC(=O)/C=C/c1cc(O)c(O)cc1O [Compound 13, 3-(2′,4′,5′-trihydroxyphenyl)-(E)-propenoic acid methyl ester] |  | 38.6 ± 2.3 | this effect after 48 h was not clearly noticeable | higher antioxidant activity than caffeic acid | highest protection against the induced oxidation
